Experimental data taken from ChEMBL document CHEMBL2406976, “Discovery of Inhibitors of Burkholderia pseudomallei Methionine Aminopeptidase with Antibacterial Activity” (ACS Med Chem Lett, 2013).
≈ marks a conversion by molar mass, not a printed value. Calls of active or inactive are those of the source. The calls are words filed in the database; no cut-off is given here.

Columns and labels:
[1] = Inhibition of Burkholderia pseudomallei recombinant methionine aminopeptidase 1 using H-Met-Gly-Pro-7-amino-4-methylcoumarin hydrochloride as substrate measured for 10 mins by fluorescence assay in presence of human recombinant DPP4
[2] = test system: Burkholderia thailandensis; experiment: Antibacterial activity against Burkholderia thailandensis E264 assessed as bacterial growth inhibition at 1 mM after 24 hrs by two-fold dilution method relative to DMSO-treated control; format: functional; details: for inhibition of growth at 1000 µM: E264, 24 h, read-out: GI
[3] = molecular target: Methionine aminopeptidase 1 (Homo sapiens, UniProt P53582); experiment: Inhibition of human methionine aminopeptidase 1
[4] = molecular target: Methionine aminopeptidase 2 (Homo sapiens, UniProt P50579); experiment: Inhibition of human methionine aminopeptidase 2
Methionine aminopeptidase 2, sequence (P50579 whole entry): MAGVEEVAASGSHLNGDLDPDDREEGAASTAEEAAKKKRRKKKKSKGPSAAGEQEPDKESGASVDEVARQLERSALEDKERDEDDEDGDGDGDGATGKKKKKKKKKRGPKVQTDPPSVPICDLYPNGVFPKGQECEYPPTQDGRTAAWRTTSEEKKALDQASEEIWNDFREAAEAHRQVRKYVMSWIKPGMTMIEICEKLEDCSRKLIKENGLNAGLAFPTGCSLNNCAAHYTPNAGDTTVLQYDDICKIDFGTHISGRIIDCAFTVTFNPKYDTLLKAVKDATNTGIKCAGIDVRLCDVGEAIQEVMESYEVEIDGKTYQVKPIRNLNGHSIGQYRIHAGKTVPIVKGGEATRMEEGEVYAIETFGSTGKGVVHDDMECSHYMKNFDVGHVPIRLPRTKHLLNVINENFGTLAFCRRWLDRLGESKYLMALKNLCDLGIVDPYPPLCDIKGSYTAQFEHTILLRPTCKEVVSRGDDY

[5] = test system: Burkholderia pseudomallei; experiment: Antibacterial activity against Burkholderia pseudomallei assessed as bacterial growth inhibition; format: functional
[6] = test system: Burkholderia thailandensis; experiment: Antibacterial activity against Burkholderia thailandensis E264 assessed as bacterial growth inhibition at 0.5 mM after 24 hrs by two-fold dilution method relative to control; format: functional
[7] = test system: Burkholderia pseudomallei; experiment: Antibacterial activity against Burkholderia pseudomallei Bp340 assessed as bacterial growth inhibition at 31.25 uM after 24 hrs by two-fold dilution method; format: functional, organism-based
[8] = test system: Burkholderia thailandensis; experiment: Antibacterial activity against Burkholderia thailandensis E264 assessed as bacterial growth inhibition after 24 hrs by two-fold dilution method; format: functional; details: E264, 24 h
[9] = test system: Burkholderia thailandensis; experiment: Bactericidal activity against Burkholderia thailandensis E264 assessed as cell death after 24 hrs by two-fold dilution method; format: functional; details: E264, 24 h
[10] = test system: Burkholderia pseudomallei; experiment: Antibacterial activity against Burkholderia pseudomallei 1026b assessed as bacterial growth inhibition after 24 hrs by two-fold dilution method; format: functional, organism-based
[11] = test system: Burkholderia thailandensis; experiment: Bactericidal activity against Burkholderia thailandensis E264 assessed as cell death at 1 mM after 24 hrs by two-fold dilution method; format: functional

| SMILES | IC50 [1] | inhibition of growth at 1000 µM [2] | other results |
| --- | --- | --- | --- |
| O=[N+]([O-])c1cc(CN2CCSCC2)c(O)c2ncccc12 | > 250 µM |  |  |
| Oc1cccc2cccnc12 [OXYQUINOLINE] |  | > 50% | IC50 [3]: > 15 µM |
| Nc1nnc(SCc2ccc(F)cc2)[nH]1 | 7 µM | ≤ 26% |  |
| Nc1nnc(SCc2ccc(Cl)cc2Cl)[nH]1 | 1 µM | ≤ 26% |  |
| O=[N+]([O-])c1cc(CN2CCCC2)c(O)c2ncccc12 | 0.03 µM |  | growth inhibition (GI) [2]: Active |
| CN(C)Cc1cc([N+](=O)[O-])c2cccnc2c1O | 0.04 µM |  | growth inhibition (GI) [2]: Active |
| Oc1c(CN2CCOCC2)cc(Cl)c2cccnc12 |  | > 50% |  |
| Oc1c(CN2CCSCC2)cc(Cl)c2cccnc12 |  | > 50% |  |
| CN1CCN(Cc2cc(Cl)c3cccnc3c2O)CC1 |  | > 50% |  |
| O=S(=O)(O)c1ccc(O)c2ncccc12 |  | 9% | IC50 [4]: > 15 µM |
| CC(C)c1ccc(CSc2nnc(N)[nH]2)cc1 | > 250 µM | ≤ 26% |  |
| Oc1ccc(Cl)c2cccnc12 [CLOXYQUIN] |  | > 50% |  |
| O=[N+]([O-])c1cc(CN2CCOCC2)c(O)c2ncccc12 | 60 µM |  |  |
| Cc1ccc(CSc2nnc(N)[nH]2)cc1 | 3.1 µM | ≤ 26% |  |
| CC(C)(C)c1ccc(CSc2nnc(N)[nH]2)cc1 | > 250 µM | ≤ 26% |  |
| CC(C)(O/N=C(\C(=O)N[C@@H]1C(=O)N2C(C(=O)[O-])=C(C[n+]3ccccc3)CS[C@H]12)c1csc(N)n1)C(=O)O [CEFTAZIDIME] |  |  | MIC [5]: 1 µg/mL (≈ 1.83 µM) |
| Cc1ccc2cccc(O)c2n1 [8-HYDROXY QUINALDINE] |  | > 50% | IC50 [4]: > 15 µM; IC50 [3]: > 15 µM |
| Nc1nnc(SCc2ccc(F)c(F)c2)[nH]1 | > 250 µM | ≤ 26% |  |
| Oc1c(CN2CCCCC2)cc(Cl)c2cccnc12 |  | > 50% | IC50 [3]: > 50 µM |
| NC[C@H]1O[C@H](O[C@H]2[C@H](O)[C@@H](O[C@H]3O[C@H](CO)[C@@H](O)[C@H](N)[C@H]3O)[C@H](N)C[C@@H]2N)[C@H](O)[C@@H](O)[C@@H]1O |  |  | inhibition [6]: Active |
| O=[N+]([O-])c1ccc(O)c2ncccc12 [NITROXOLINE] |  |  | growth inhibition (GI) [7]: Active; MIC [8]: 31 µM (≈ 5.89 µg/mL); MBC [9]: 250 µM (≈ 47.5 µg/mL); growth inhibition (GI) [10]: Active; growth inhibition (GI) [2]: Active |
| CN1CCN(Cc2cc([N+](=O)[O-])c3cccnc3c2O)CC1 | 0.07 µM |  | MIC [8]: 500 µM (≈ 151 µg/mL); growth inhibition (GI) [2]: Active; growth inhibition (GI) [11]: inactive |
